Data taken from paper PMC6539809, “Development of Oxygen-Bridged Pyrazole-Based Structures as Cannabinoid Receptor 1 Ligands” (Molecules, 2019).

Tests used:
[1] = molecular target: T1, CB1 receptor (Mus musculus, UniProt P47746); settings: [3H]-CP 55,940, mouse brain (minus cerebellum) homogenate; lead compound; read-out: KiCB1; cited from earlier work
T1 construct: from tissue; host or cells: mouse (CD1) brain minus cerebellum, membrane homogenate

[2] = test system: rats; design: method as in PMID 27521837; settings: i.p. dose of 0.125 mg/kg; cited from earlier work
[3] = test system: P-ERK 1/2 expression in mouse neuroblastoma N1E-115 cells (CB1Rs); test: P-ERK 1/2 expression in N1E-115 cells (Western blot); format: cell-based; settings: 5 min pre-treatment with compound (150–200 nM; 1b 200 nM), then WIN 55,212-2 25 nM for 10 min
Procedure: Agonist or antagonist activity of the new derivatives towards CB1Rs were assayed through in vitro testing based on the determination of phosphorylated ERK 1/2 (P-ERK 1/2) expression in a mouse neuroblastoma N1E-115 cell line. As previously reported, this cell line expresses CB1Rs but not CB2Rs; moreover, it has been shown that the exposure of N1E-115 cells to the cannabinoid agonists arachidonyl-2-chloroethylamide (ACEA) and WIN 55-212,2 induces a rapid phosphorylation and activation of the ERK 1/2. The addition of CB1 antagonists as SR141716A abolishes the response induced by the cannabinoid agonists.
N1E-115 cells were grown at 37 °C in humidified 5% CO2 in Dulbecco’s Modified Eagle’s Medium (high glucose supplemented with 10% fetal bovine serum (FBS), 1 μg/mL penicillin-streptomycin, 2 mM L-glutamine, 2.5 μg/mL amphotericin B and 50 μg/mL gentamicin). […] Tested and reference compounds were dissolved in Dulbecco’s phosphate buffered saline (D-PBS) with 1% DMSO and treatments were performed in a volume of 10 μL/mL of cell suspension.
P-ERK 1/2 expression was determined through Western blot analysis according to the previously reported procedure. One-way ANOVA was performed as a statistical analysis using the Graph Pad Prism program (San Diego, CA, USA).
The same procedure was adopted to determine CB1 specific antagonism for compounds which had no effect on P-ERK 1/2 expression themselves. In these last cases, WIN55,212-2 at 25 nM as a reference cannabinoid agonist agent and the new CB1 antagonists at 150–200 nM were employed.

[4] = test system: C57Bl6/J mice; test: Acute food intake in fasted mice; format: in vivo, mouse; settings: for Food intake effect over time: 10 mg/kg i.p., at 2 h and 3 h; for Activity on food intake compared to rimonabant: dose of 10 mg/kg i.p.
Procedure: To further evaluate the potential application of these CB1 antagonists in the control of food intake and in obesity treatment, compound 1b was preliminarily tested in comparison with SR141716A in an acute in vivo assay using C57Bl6/J mice. The evaluation was carried out according to the animal model previously reported by Di Marzo [19].
It is well known that CB1Rs mediate the hyperphagic effect of cannabinoids. […] To test the potential anti-obesity effect of the new CB1 antagonist 1b we performed food intake experiments according to the acute animal model described by Di Marzo [19]. For a comparison we also reported the results concerning the assumed lead compound of this new series, derivative 1a.
A widely described method was used for the screening of the new CB1 antagonists in the food intake animal model. C57Bl6/J mice weighing 20–25 g were housed individually on a reverse light-dark cycle in a room with temperature and humidity control. The mice were fasted for 18 h before testing. Vehicle or CB1 antagonists were administered by an intraperitoneal injection and 15 min later a known amount of food was presented. Food pellets were weighed after each hour for three hours. Rimonabant was used as internal positive control in order to evaluate the efficacy of each compound. All animal experiments were performed according to the UE (CEE N° 86/609) guidelines for the care and use of experimental animals.
Two-way ANOVA with Bonferroni post-testing was performed using GraphPad Prism version 5.00 for Windows (GraphPad Software, San Diego CA, USA).

[5] = molecular target: T2, CB2 receptor (Mus musculus, UniProt P47936); settings: [3H]-CP-55,940, mouse spleen homogenate; lead compound; read-out: KiCB2; cited from earlier work
T2 construct: from tissue; host or cells: mouse (CD1) spleen, membrane homogenate
T2 sequence (P47936 whole entry): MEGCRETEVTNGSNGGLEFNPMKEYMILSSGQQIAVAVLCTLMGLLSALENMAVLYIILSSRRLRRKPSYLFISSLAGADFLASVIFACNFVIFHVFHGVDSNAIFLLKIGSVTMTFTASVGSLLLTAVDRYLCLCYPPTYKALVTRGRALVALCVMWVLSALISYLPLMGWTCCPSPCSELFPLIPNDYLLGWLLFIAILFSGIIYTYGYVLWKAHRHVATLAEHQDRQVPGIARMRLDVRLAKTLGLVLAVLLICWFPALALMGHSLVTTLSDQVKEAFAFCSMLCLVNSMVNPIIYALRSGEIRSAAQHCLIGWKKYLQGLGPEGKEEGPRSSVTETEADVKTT

[6] = molecular target: T3, CB1Rs of mouse vas deferens (Mus musculus, UniProt P47746); test: Isolated organ assay: electrically evoked contractions of mouse vas deferens; settings: for Kb: read-out: Antagonist potency pA2 (converted)
T3 construct: naturally expressed prejunctional neuronal CB1Rs; from tissue; host or cells: isolated vas deferens of male albino CD1 mice
T3 sequence (P47746 whole entry): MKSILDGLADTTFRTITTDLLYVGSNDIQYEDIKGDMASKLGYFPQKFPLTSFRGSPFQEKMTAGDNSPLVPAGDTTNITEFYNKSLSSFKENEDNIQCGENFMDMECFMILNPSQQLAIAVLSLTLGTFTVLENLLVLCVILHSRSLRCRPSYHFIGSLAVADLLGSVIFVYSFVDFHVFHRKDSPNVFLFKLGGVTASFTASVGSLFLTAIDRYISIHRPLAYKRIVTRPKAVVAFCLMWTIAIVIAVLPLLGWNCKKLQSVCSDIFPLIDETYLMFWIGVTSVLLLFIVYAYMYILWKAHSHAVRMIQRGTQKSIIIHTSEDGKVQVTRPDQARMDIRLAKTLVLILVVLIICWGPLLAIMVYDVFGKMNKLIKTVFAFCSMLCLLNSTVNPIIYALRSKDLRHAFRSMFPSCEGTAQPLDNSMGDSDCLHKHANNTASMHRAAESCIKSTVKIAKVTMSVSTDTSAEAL
Procedure: Vas deferens was obtained from male albino CD1 mice weighing 30 to 40 g. Tissue was mounted in a 10 mL organ bath at an initial tension of 0.5 g using a previously described method [16]. The bath contained Krebs-Henseleit solution (118.2 mM NaCl, 4.75 mM KCl, 1.19 mM KH2PO4, 25.0 mM NaHCO3, 11.0 mM glucose, and 2.54 mM CaCl2), which was kept at 37 °C and bubbled with 95% O2 and 5% CO2. Isometric contractions were evoked by stimulation with 0.5 sec trains of three pulses of 110% maximal voltage (train frequency, 0.1 Hz; pulse duration, 0.5 msec) through platinum electrodes attached to the upper end of each bath and a stainless-steel electrode attached to the lower end. Stimuli were generated using a Grass S88K stimulator and then amplified (multiplexing pulse booster 316S; Ugo Basile, Comerio, Italy) and divided to yield separate outputs to four organ baths. Contractions were monitored using a computer equipped with a data recording and analysis system (PowerLab 400) linked via preamplifiers (QuadBridge) to an F10 transducer (Biological Instruments, Besozzo, Italy). Each tissue was subject to several periods of stimulation. […] The stimulator was then switched off for 15 min, after which the tissues were subjected to further periods of stimulation each lasting 5 min and separated by a stimulation-free period. The compounds to be assayed were added once the contractile responses to electrical stimulation were reproducible. Preparations were exposed to cumulative increasing concentrations of the compounds to obtain concentration-response curves in the case of CB1 agonist (and partial agonist) compounds. […] Inhibition of the electrically evoked twitch response was expressed in percentage terms and was calculated by comparing the amplitude of the twitch response after each addition of the agonist compound (alone or in the presence of a potential CB1 antagonist) with the amplitude detected in absence of the compounds to be assayed (basal value). The pA2 values for competitive antagonism were calculated by Schild regression analysis [37]. Data were plotted as log antagonist concentration versus log [(antagonist concentration/agonist concentration)-1].

[7] = test system: CD1 mice; test: Gastrointestinal transit (GIT), carmine marker; format: in vivo, mouse
Text: The mouse isolated vas deferens is a nerve-smooth muscle preparation that serves as a highly sensitive and quantitative functional in vitro bioassay for cannabinoid CB1R agonists. The effect of CB1 agonists is related to the action on naturally expressed prejunctional neuronal CB1Rs to inhibit release of the contractile neurotransmitters, noradrenaline and ATP, which is provoked by electrical stimulation. It has been shown that CB1 antagonist derivatives are able to block or reduce the inhibition of the electrically evoked contraction amplitude of the vas deferens induced by CB1 agonists, with parallel dextral shifts in CB1R agonist log concentration-response curves in electrically stimulated tissues. According to previous studies concerning cannabinoid agents, a gastrointestinal transit test was adopted to confirm CB1 antagonism. […] Moreover, the capability of CB1 antagonist compounds both to block the constipation effect induced by cannabinoid agonists and to themselves increase themselves gastrointestinal motility has been reported.
The same procedure previously reported by Murineddu et al. was adopted to evaluate the effect of the compounds on GIT. CD1 mice weighing 30–35 g were used. Carmine (Sigma Chemical Co, St. Louis, MO, USA) was suspended (6% wt/v) in distilled water containing 0.5% methylcellulose and administered by gavage at the dose of 0.3 mL/mouse. Briefly, after 20 min from carmine administration, mice were sacrificed by cervical dislocation and the stomach and small intestine were removed and the omentum was separated, avoiding stretching. The length of the intestine was measured starting from the pyloric sphincter to the ileocecal junction. The distance travelled by the head of the marker was measured and expressed as a percent of the total length of the small intestine. Using this procedure, the marker was consistently found at approximately 50% of the small intestine, 20 min after its administration to naive mice.
20 min later, mice were killed by dislocation cervical and intestines were removed. […] The length of the intestine from the pyloric sphincter to the ileocecal junction and the distance travelled by the carmine front were both measured and recorded. Groups of n = 10 mice were used in each experiment.
Statistical analyses were performed by one-way ANOVA followed by Newman-Keuls post-hoc comparison.

[8] = test system: ventral tegmental area (VTA) dopamine neurons projecting to the NAc shell; design: method as in PMID 27521837; settings: i.v. administration of high doses; cited from earlier work
[9] = design: method as in PMID 23756200; settings: cited from earlier work
[10] = test system: obese mice; design: method as in PMID 23756200; settings: chronic treatment of obese mice; cited from earlier work

T1 sequence (P47746 whole entry): as above

In the case of O=C(NC1CCCCC1)c1nn(-c2ccc(Cl)cc2Cl)c2c1CCOc1cc(Cl)ccc1-2 [Compound 1b], the Ki [1] is given as 40 ± 7 nM, the “Food intake and body weight” value [2] is given as “reduced both food intake and body weight” and the “Counteraction of the WIN 55,212-2-induced increase of P-ERK 1/2 expression” value [3] is given as “CB1 antagonist activity”. The “Food intake effect over time” value [4] was “still markedly decreased food intake”, the “Observable side effects / behavioural effects” value ([4]; 20 mg/kg (highest assayed dosage)) was “absence of observable side effects” and the “Activity on food intake compared to rimonabant” value [4] was “Significant increments of the activity”. For the same compound, the “Food intake compared to vehicle” value ([4]; starting from a dose of 3 mg/kg i.p., fasted mice) was “significantly reduced food intake”, the Ki [5] was 3725 ± 25 nM and the Kb [6] was 0.794 nM. For the same compound, the “Change of electrically-evoked contractions versus basal response, compound alone” value ([6]; up to a concentration of 10^−6 M, 30 min incubation) was “No agonist activity”, the “Increase in gastrointestinal transit in comparison to vehicle-treated mice” value ([7]; 0.5–1.0 mg/kg i.p.) was 65–70% and the “Effect on GIT in combination with WIN 55,212-2” value ([7]; WIN 55,212-2 0.5 mg/kg i.p.) was “significantly blocked”. For the same compound, the “Effect on the WIN-55,212-2 action on VTA dopamine neuron activity” value [8] was “reverted the effect of the agonist WIN-55,212-2”.
For O=C(NN1CCCCC1)c1nn(-c2ccc(Cl)cc2Cl)c2c1CCOc1cc(Cl)ccc1-2 [Compound 1a, 8-chloro-1-(2,4-dichlorophenyl)-N-piperidin-1-yl-4,5-dihydrobenzo-1H-6-oxa-cyclohepta[1,2-c]pyrazole-3-carboxamide], the Ki [1] is listed as 10.3 ± 0.41 nM, the “Blood-brain barrier (BBB) permeability” value [9] is listed as “poor” and the “Food intake effect over time” value [4] is listed as “still markedly decreased food intake”. The “Activity on food intake compared to rimonabant” value [4] was “Significant increments of the activity”, the “Food intake and body weight on chronic treatment” value [10] was “reduction of food intake and body weight” and the Ki [5] was over 5000 nM. For the same compound, the Kb [6] was 7.94 nM.
